What was measured:
[1] = biological target: Sodium-dependent noradrenaline transporter (Homo sapiens, UniProt P23975)
Description: Inhibition of human NET expressed in MDCK-Net6 cells

[2] = biological target: Sodium-dependent serotonin transporter (Homo sapiens, UniProt P31645); assay type: cell-based, JAR
Description: Inhibition of human SERT expressed in JAR cells

[3] = biological target: Sodium-dependent dopamine transporter (Homo sapiens) (UniProt Q01959); experiment: Displacement of [3H]WIN-35428 from human DAT expressed in CHO cells; assay type: cell-based; conditions: concentration not given here
Homo sapiens = organism: Homo sapiens; experiment: Selectivity ratio, IC50 for human SERT to IC50 for human NET
Rattus norvegicus [4] = experiment: Effect on temperature homeostasis in ovariectomized-induced thermoregulatory dysfunction telemetric Sprague-Dawley rat model assessed as mean reduction in tail skin temperature at 30 mg/kg, po; assay type: functional
[5] = Cmax in rat at 10 mg/kg, po after 8 hrs; assay type: ADME, organism-based; set-up: dose 10 mg/kg, route oral; conditions: in vivo
Rattus norvegicus [6] = experiment: Effect on temperature homeostasis in ovariectomized-induced thermoregulatory dysfunction telemetric Sprague-Dawley rat model assessed as mean reduction in tail skin temperature at 10 mg/kg, po; assay type: functional
Rattus norvegicus [7] = experiment: Effect on temperature homeostasis in ovariectomized-induced thermoregulatory dysfunction in telemetric Sprague-Dawley rat model assessed as duration of onset activity in tail skin temperature reduction at 30 mg/kg, po; assay type: functional
Rattus norvegicus [8] = experiment: Effect on temperature homeostasis in ovariectomized-induced thermoregulatory dysfunction telemetric Sprague-Dawley rat model assessed as maximum reduction in tail skin temperature at 30 mg/kg, po; assay type: functional
[9] = Oral bioavailability in rat at 10 mg/kg; assay type: ADME, organism-based; conditions: in vivo
[10] = Plasma concentration in rat at 10 mg/kg, po after 8 hrs; assay type: ADME, organism-based; set-up: dose 10 mg/kg, route oral
Rattus norvegicus [11] = experiment: Effect on temperature homeostasis in ovariectomized-induced thermoregulatory dysfunction in telemetric Sprague-Dawley rat model assessed as duration of tail skin temperature reduction at 10 mg/kg, po; assay type: functional
[12] = Ratio of AUC in brain to AUC in plasma in rat at 10 mg/kg, po and 2 mg/kg, iv; assay type: ADME, organism-based; conditions: read-out: Ratio AUC
Rattus norvegicus [13] = experiment: Effect on temperature homeostasis in ovariectomized-induced thermoregulatory dysfunction telemetric Sprague-Dawley rat model assessed as maximum reduction in tail skin temperature at 10 mg/kg, po; assay type: functional
Rattus norvegicus [14] = experiment: Effect on temperature homeostasis in ovariectomized-induced thermoregulatory dysfunction in telemetric Sprague-Dawley rat model assessed as duration of onset activity in tail skin temperature reduction at 10 mg/kg, po; assay type: functional
Rattus norvegicus [15] = experiment: Effect on temperature homeostasis in ovariectomized-induced thermoregulatory dysfunction telemetric Sprague-Dawley rat model assessed as duration of tail skin temperature reduction at 30 mg/kg, po; assay type: functional

Sequence of Sodium-dependent serotonin transporter (P31645 whole entry): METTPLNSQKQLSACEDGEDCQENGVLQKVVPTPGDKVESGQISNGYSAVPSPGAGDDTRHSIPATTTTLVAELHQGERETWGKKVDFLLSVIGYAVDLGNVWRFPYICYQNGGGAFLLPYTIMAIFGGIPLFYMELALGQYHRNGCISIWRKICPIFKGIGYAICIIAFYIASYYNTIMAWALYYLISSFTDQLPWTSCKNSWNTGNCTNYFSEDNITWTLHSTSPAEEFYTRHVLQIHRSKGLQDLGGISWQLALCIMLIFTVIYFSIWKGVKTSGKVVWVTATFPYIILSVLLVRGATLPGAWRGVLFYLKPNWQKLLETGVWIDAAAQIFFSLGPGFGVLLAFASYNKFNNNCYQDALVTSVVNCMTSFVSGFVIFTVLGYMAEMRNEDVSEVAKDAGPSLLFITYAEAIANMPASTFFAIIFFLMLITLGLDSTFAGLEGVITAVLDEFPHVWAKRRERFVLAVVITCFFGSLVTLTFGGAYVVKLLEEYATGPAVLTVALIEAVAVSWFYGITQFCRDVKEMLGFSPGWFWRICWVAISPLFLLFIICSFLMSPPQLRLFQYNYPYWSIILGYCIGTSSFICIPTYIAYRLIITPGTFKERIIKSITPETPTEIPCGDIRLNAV
Sequence of Sodium-dependent dopamine transporter (Homo sapiens) (Q01959 whole entry): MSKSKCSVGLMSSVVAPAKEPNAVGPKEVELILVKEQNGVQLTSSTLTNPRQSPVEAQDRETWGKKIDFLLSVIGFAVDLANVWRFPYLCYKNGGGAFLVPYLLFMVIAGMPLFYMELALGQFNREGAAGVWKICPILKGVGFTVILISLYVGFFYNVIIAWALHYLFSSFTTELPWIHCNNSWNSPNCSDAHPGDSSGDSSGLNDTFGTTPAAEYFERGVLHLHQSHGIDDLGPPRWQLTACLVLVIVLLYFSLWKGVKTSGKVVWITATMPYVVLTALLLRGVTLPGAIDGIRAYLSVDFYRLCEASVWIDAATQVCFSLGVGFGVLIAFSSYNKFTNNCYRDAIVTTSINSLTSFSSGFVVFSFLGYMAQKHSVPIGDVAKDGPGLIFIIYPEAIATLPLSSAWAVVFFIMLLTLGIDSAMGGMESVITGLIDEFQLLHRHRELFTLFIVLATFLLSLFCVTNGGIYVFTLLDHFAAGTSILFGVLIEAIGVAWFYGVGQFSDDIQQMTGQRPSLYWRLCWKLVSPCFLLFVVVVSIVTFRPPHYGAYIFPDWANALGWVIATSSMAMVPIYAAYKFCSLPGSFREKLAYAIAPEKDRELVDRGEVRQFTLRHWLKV
Sequence of Sodium-dependent noradrenaline transporter (P23975 whole entry): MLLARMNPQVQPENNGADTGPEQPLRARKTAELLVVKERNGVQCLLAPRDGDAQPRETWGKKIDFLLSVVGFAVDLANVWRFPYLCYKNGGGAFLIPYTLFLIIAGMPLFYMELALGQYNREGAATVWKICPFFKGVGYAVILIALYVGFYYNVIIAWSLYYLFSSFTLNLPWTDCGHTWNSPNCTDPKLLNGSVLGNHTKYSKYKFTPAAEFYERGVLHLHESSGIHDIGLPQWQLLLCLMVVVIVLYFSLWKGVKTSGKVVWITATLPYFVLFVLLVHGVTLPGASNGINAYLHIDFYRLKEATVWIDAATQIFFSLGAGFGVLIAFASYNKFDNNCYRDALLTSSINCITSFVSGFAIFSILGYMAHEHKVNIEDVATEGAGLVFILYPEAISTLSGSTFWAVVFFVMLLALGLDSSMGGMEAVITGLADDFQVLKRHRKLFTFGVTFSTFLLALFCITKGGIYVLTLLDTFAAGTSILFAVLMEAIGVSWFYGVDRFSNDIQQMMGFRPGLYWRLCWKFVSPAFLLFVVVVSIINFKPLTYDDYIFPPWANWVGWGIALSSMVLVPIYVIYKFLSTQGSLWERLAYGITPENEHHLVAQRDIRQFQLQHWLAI

SMILES	IC50 [1] [nM]	IC50 [2] [nM]	inhibition [3] [%]	Ratio IC50 (Homo sapiens)	other results
CNC[C@@H](O)[C@H](c1cccc(F)c1)n1ccc2ccc(F)cc21	20	626	15	31	–
CNC[C@@H](O)[C@H](c1ccccc1C)n1ccc2ccccc21	232	266	11	1	–
CNC[C@@H](O)[C@H](c1cccc(F)c1)n1ccc2cc(C)ccc21	21	48	0	2	–
CNC[C@@H](O)[C@H](c1cccc(C(F)(F)F)c1)n1ccc2ccccc21	54	2180	14	40	–
CNCC[C@H](c1ccccc1)n1ccc2ccccc21	34	491	44	14	–
CNC[C@@H](O)[C@H](c1cccc(F)c1)n1ccc2cccc(C)c21	18	527	7	29	–
CNC[C@@H](O)[C@H](c1cccc(C)c1)n1ccc2ccccc21	49	377	8	8	–
CNC[C@@H](O)[C@H](c1ccccc1F)n1ccc2ccccc21	92	473	4	5	–
CNC[C@@H](O)[C@H](c1cccc(F)c1)n1ccc2cc(Cl)ccc21	60	79	6	1	–
CNC[C@@H](O)[C@H](c1cccc(F)c1)n1ccc2cccc(F)c21	7	175	8	25	–
CNC[C@@H](O)[C@H](c1cccc(F)c1)n1ccc2cccc(Cl)c21	21	48	0	2	–
CNC[C@@H](O)[C@H](c1cccc(OC)c1)n1ccc2ccccc21	111	882	0	8	–
CNC[C@@H](O)[C@H](c1cccc(F)c1)n1ccc2ccccc21	11	441	23	40	–
CNC[C@@H](O)[C@H](c1cccc(F)c1)n1ccc2cccc(Br)c21	21	113	0	5	–
CNC[C@@H](O)[C@H](c1cccc(F)c1)n1ccc2cc(Br)ccc21	60	52	10	1	–
CNC[C@@H](O)[C@H](c1cccc(F)c1)n1ccc2ccc(Cl)cc21	92	865	9	9	–
CNC[C@@H](O)[C@H](c1ccccc1Cl)n1ccc2ccccc21	304	1330	7	4	–
CNCC[C@H](c1cccc(F)c1)n1ccc2ccccc21	91	14	52	0.2	–
CNC[C@@H](O)[C@H](c1cccc(F)c1)n1cc(C)c2ccccc21	4	343	8	86	Activity (Rattus norvegicus [4]): -3.8 °C; Cmax [5]: 87 ng/mL; Activity (Rattus norvegicus [6]): -1.5 °C; Activity (Rattus norvegicus [7]): 0.5 h; Activity (Rattus norvegicus [8]): -7 °C; bioavailability [9]: 6%; concentration at 8 h [10]: 40 nM; Time (Rattus norvegicus [11]): 5 h; Kp [12]: 3.5; Activity (Rattus norvegicus [13]): -2.3 °C; Activity (Rattus norvegicus [14]): 1 h; Activity (Rattus norvegicus [15]): 10.5 h
CCc1cn([C@@H](c2cccc(F)c2)[C@H](O)CNC)c2ccccc12	10	834	0	83	–

Further molecules by falling IC50 [1], results first:

IC50 [1] [nM]	IC50 [2] [nM]	inhibition [3] [%]	Ratio IC50 (Homo sapiens)	SMILES	other results
527	748	16	1	CNC[C@@H](O)[C@H](c1ccc(Cl)cc1)n1ccc2ccccc21	–
124	1000	12	8	CNC[C@@H](O)[C@H](c1cccc(F)c1)n1ccc2ccc(Br)cc21	–
117	398	0	3	CNC[C@@H](O)[C@H](c1ccc(C)cc1)n1ccc2ccccc21	–
84	1370	11	16	CNC[C@@H](O)[C@H](c1ccc(F)cc1)n1ccc2ccccc21	–
64	221	12	3	CNC[C@@H](O)[C@H](c1cccc(F)c1)n1ccc2c(Cl)cccc21	–
52	207	24	4	CNC[C@@H](O)[C@H](c1cccc(F)c1)n1ccc2c(Br)cccc21	–
22	78	9	4	CNC[C@@H](O)[C@H](c1cccc(F)c1)n1ccc2cc(F)ccc21	–
16	554	20	34	CNC[C@@H](O)[C@H](c1cccc(Cl)c1)n1ccc2ccccc21	–
16	417	3	26	CNC[C@@H](O)[C@H](c1cccc(F)c1)n1ccc2c(F)cccc21	–
15	228	4	15	CNC[C@@H](O)[C@H](c1cccc(F)c1)n1ccc2c(C)cccc21	–
14	547	13	39	CNC[C@@H](O)[C@H](c1cccc(Br)c1)n1ccc2ccccc21	–

From ChEMBL document CHEMBL1155200, “Structure-activity relationships of the 1-amino-3-(1H-indol-1-yl)-3-phenylpropan-2-ol series of monoamine reuptake inhibitors” (Bioorg Med Chem Lett, 2009)
